CC1=CC(=O)c2ccccc2C1=O
solubility (mole fraction)
Settings | in 1,2-dichloroethane | in acetone | in acetonitrile | in cyclohexane | in dichloromethane | in isopropanol | in methanol | in methyl acetate | in n-butanol | in n-propanol
278.15 K | 0.0879 | 0.0305 | 0.016 | – | 0.111 | 0.00291 | 0.00285 | 0.0427 | 0.00314 | 0.00343
283.15 K | 0.108 | 0.0381 | 0.0197 | 0.00329 | 0.128 | 0.00373 | 0.00335 | 0.0481 | 0.00417 | 0.00426
288.15 K | 0.12 | 0.0439 | 0.027 | 0.00417 | 0.148 | 0.0048 | 0.00396 | 0.0595 | 0.0057 | 0.00564
293.15 K | 0.142 | 0.0534 | 0.0326 | 0.00514 | 0.169 | 0.00588 | 0.00484 | 0.0718 | 0.00742 | 0.00685
298.15 K | 0.159 | 0.0669 | 0.0403 | 0.00673 | 0.193 | 0.00764 | 0.00606 | 0.0854 | 0.00994 | 0.00838
303.15 K | 0.187 | 0.0809 | 0.0491 | 0.00848 | 0.219 | 0.0096 | 0.00709 | 0.105 | 0.0127 | 0.01
308.15 K | 0.21 | 0.0983 | 0.0609 | 0.0103 | 0.247 | 0.0122 | 0.00827 | 0.12 | 0.0169 | 0.0122
313.15 K | 0.243 | 0.118 | 0.0737 | 0.0131 | 0.277 | 0.0153 | 0.00975 | 0.148 | 0.0223 | 0.0143
